The source made the active and inactive calls. Rule as the data show it, for most assays here: actives have a measured EC50 and inactives only a lower limit.
Columns and labels:
cells = assay type: functional, cell-based
BJ = experiment: BJ-TERT fibroblast viability loss – cell-based, RAS-independent, luminescence, dose response (AID 1933); assay type: functional; conditions: Homo sapiens
[1] = target: T1, Sentrin-specific protease 6 (Homo sapiens, UniProt Q9GZR1); assay type: functional;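 also: Luminescence-based dose-response confirmatory assay of SENP6 inhibition, following up an ultra-high-throughput screen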
T1 sequence (Q9GZR1 whole entry): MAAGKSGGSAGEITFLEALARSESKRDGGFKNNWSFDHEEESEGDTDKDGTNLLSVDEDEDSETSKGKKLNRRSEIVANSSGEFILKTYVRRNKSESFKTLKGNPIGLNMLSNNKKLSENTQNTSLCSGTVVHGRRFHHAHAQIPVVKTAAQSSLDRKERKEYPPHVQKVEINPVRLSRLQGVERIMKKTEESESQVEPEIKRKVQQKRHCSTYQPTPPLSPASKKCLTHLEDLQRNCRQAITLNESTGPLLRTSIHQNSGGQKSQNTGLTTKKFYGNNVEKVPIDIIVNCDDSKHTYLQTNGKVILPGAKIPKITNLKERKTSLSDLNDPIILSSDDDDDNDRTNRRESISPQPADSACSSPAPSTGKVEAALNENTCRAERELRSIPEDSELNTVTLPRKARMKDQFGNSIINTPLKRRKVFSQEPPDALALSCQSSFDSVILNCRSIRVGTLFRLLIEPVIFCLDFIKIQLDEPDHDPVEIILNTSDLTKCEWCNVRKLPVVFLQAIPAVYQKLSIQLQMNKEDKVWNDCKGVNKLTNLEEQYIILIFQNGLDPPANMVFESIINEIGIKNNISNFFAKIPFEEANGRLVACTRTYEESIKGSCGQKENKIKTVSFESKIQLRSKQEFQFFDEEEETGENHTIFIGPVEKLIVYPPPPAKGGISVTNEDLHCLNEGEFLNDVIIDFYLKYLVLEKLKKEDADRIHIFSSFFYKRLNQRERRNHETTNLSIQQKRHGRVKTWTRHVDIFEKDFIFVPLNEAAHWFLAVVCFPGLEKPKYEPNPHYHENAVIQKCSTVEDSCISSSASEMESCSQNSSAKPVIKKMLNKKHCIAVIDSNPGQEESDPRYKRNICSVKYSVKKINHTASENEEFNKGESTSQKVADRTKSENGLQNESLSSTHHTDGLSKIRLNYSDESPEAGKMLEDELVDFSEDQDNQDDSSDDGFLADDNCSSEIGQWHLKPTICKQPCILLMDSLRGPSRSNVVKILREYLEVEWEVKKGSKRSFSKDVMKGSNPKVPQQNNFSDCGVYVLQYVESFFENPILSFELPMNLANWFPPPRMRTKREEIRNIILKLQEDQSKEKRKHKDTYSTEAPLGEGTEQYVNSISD

| Structure (SMILES) | EC50 (cells) | EC50 (BJ) | IC50 [1] |
| --- | --- | --- | --- |
| CCCCC(=O)NC(c1ccc(N(C)C)cc1)c1ccc2cccnc2c1O (stereo not drawn) | 3.94 µM (active) | 1.05 µM (active) | – |
| CN(CC(=O)Nc1ccccc1Cl)C(=O)COC(=O)c1ccc([N+](=O)[O-])s1 | – | – | 4.72 µM (active) |

From ChEMBL document CHEMBL1201862, “PubChem BioAssay data set” (2004)
